Measured values reported in ChEMBL document CHEMBL1135808, “A new type of mixed anhydride and its applications to the synthesis of 7-substituted 8-chloro-5,5-dioxoimidazo[1,2-b][1,4,2]benzodithiazines with in vitro antitumor activity” (2002).

Experiments:
[1] = tested on: SK-MEL-5; test: Log of molar concentration leading to 50% cell death against melanoma SK-MEL-5 cell line was reported; type: functional; details: Homo sapiens, read-out: Log LC50 (the source's name) (converted)
[2] = tested on: SK-MEL-28; test: In vitro growth inhibition against melanoma SK-MEL-28 cell line was reported.; type: functional; details: Homo sapiens
[3] = tested on: HOP-92; test: In vitro growth inhibition against non-small-cell lung cancer HOP-92 cell line was reported.; type: functional; details: Homo sapiens
[4] = tested on: HCT-15; test: In vitro growth inhibition against colon cancer […] cell line was reported.; type: functional; details: Homo sapiens
[5] = tested on: SF-539; test: In vitro growth inhibition against CNS cancer SF-539 cell line was reported.; type: functional; details: Homo sapiens
[6] = tested on: Malme-3M; test: In vitro growth inhibition against melanoma MALME 3M cell line was reported.; type: functional; details: Homo sapiens
[7] = tested on: RXF 393; test: In vitro growth inhibition against renal cancer RXF 393 cell line was reported.; type: functional; details: Homo sapiens
[8] = tested on: MDA-MB-435; test: In vitro growth inhibition against breast cancer MDA-MB-435 cell line was reported.; details: Homo sapiens
[9] = tested on: TK-10; test: In vitro total growth inhibition against renal cancer TK-10 cell lines was reported.; type: functional; details: Homo sapiens, read-out: Log TGI (converted)
[10] = tested on: KM12; test: Log of molar concentration leading to 50% cell death against colon cancer KM12 cell line was reported; type: functional; details: Homo sapiens, read-out: Log LC50 (the source's name) (converted)
[11] = tested on: UACC-257; test: Log of molar concentration leading to 50% cell death against melanoma UACC-257 cell line was reported; type: functional; details: Homo sapiens, read-out: Log LC50 (the source's name) (converted)
[12] = tested on: U-251; test: Log of molar concentration leading to 50% cell death against CNS cancer U251 cell line was reported; type: functional; details: Homo sapiens, read-out: Log LC50 (the source's name) (converted)
[13] = tested on: NCI-H322M; test: Log of molar concentration leading to 50% cell death against non-small-cell lung cancer NCI-H322M cell line was reported; type: functional; details: Homo sapiens, read-out: Log LC50 (the source's name) (converted)
[14] = tested on: HCT-15; test: In vitro total growth inhibition against colon cancer HCT-15 cell lines was reported.; type: functional; details: Homo sapiens, read-out: Log TGI (converted)
[15] = tested on: SF-268; test: In vitro growth inhibition against CNS cancer SF-268 cell line was reported.; type: functional; details: Homo sapiens
[16] = tested on: CAKI-1; test: In vitro total growth inhibition against renal cancer CAKI-1cell lines was reported.; type: functional; details: Homo sapiens, read-out: Log TGI (converted)
[17] = tested on: A549; test: In vitro total growth inhibition against non-small-cell lung cancer A 549/ATCC cell lines was reported.; type: functional; details: Homo sapiens, read-out: Log TGI (converted)
[18] = tested on: EKVX; test: In vitro growth inhibition against non-small-cell lung cancer EKVX cell line was reported.; type: functional; details: Homo sapiens
[19] = tested on: NCI-H46; test: In vitro growth inhibition against non-small-cell lung cancer […] cell line was reported.; type: functional; details: Homo sapiens
[20] = tested on: MDA-N; test: In vitro growth inhibition against breast cancer MDA-N cell line was reported.; type: functional; details: Homo sapiens
[21] = tested on: HT-29; test: In vitro total growth inhibition against colon cancer HT-29 cell lines was reported.; type: functional; details: Homo sapiens, read-out: Log TGI (converted)
[22] = tested on: EKVX; test: Log of molar concentration leading to 50% cell death against non-small-cell lung cancer EKVX cell line was reported; type: functional; details: Homo sapiens, read-out: Log LC50 (the source's name) (converted)
[23] = tested on: K562; test: In vitro total growth inhibition against leukemia K-562 cell lines was reported.; type: functional; details: Homo sapiens, read-out: Log TGI (converted)
[24] = tested on: Tumor Cell line; test: In vitro inhibition of 50% cell growth was reported as log of molar concentration for 60 cell lines.; type: functional; details: Homo sapiens
[25] = tested on: MCF7; test: Log of molar concentration leading to 50% cell death against breast cancer MCF 7 cell line was reported; type: functional; details: Homo sapiens, read-out: Log LC50 (the source's name) (converted)
[26] = tested on: NCI/ADR-RES; test: In vitro total growth inhibition against breast cancer NCI/ADR-RES cell lines was reported.; type: functional; details: Homo sapiens, read-out: Log TGI (converted)
[27] = tested on: NCI-H23; test: In vitro growth inhibition against non-small-cell lung cancer NCI-H23 cell line was reported.; type: functional; details: Homo sapiens
[28] = tested on: TK-10; test: In vitro growth inhibition against renal cancer TK-10 cell line was reported.; type: functional; details: Homo sapiens
[29] = tested on: LOX IMVI; test: In vitro growth inhibition against melanoma LOX IMVI cell line was reported.; type: functional; details: Homo sapiens
[30] = tested on: HOP-62; test: In vitro growth inhibition against non-small-cell lung cancer HOP-62 cell line was reported.; type: functional; details: Homo sapiens

O=C(Nc1nccs1)c1cc2c(cc1Cl)Sc1nccn1S2(=O)=O
CC50 [1]: 55 µM | GI50 [2]: 20 µM | GI50 [3]: 15.1 µM | GI50 [4]: 12.3 µM | GI50 [5]: 19.5 µM | GI50 [6]: 20 µM | GI50 [7]: 19.1 µM | GI50 [8]: 17.4 µM | TGI [9]: 34.7 µM | CC50 [10]: 57.5 µM | CC50 [11]: 52.5 µM | CC50 [12]: 56.2 µM | CC50 [13]: 64.6 µM | TGI [14]: 33.9 µM | GI50 [15]: 19.1 µM | TGI [16]: 37.2 µM | TGI [17]: 63.1 µM | GI50 [18]: 20.4 µM | GI50 [19]: 15.8 µM | GI50 [20]: 17.8 µM | TGI [21]: 46.8 µM | CC50 [22]: 97.7 µM | TGI [23]: 46.8 µM | GI50 [24]: 28.2 µM | CC50 [25]: 44.7 µM | TGI [26]: 44.7 µM | GI50 [27]: 17 µM | GI50 [28]: 19.1 µM | GI50 [29]: 11 µM | GI50 [30]: 14.8 µM
